Source: patent US20240358668A1, “METHODS AND CO[…] AM[…] CARD[…] USING (R)-2-AMINO-3-PH[…]” (AXSOME THERAPEUTICS, INC., priority 2021, published 2024)
Marks after values point to notes of the source that are not given here.

Experiments:
[1] = system: adults with EDS associated with OSA; assay: Long-term OLE trial in OSA: vital signs, antihypertensive medication use, AEs of hypertension/increased BP; type: in vivo, human
Description: An exploratory analysis of data from one 12-week randomized, controlled trial (Schweitzer P K, et al. Am J Respir Crit Care Med. 2019; 199(11):1421-31) and 1 long-term open-label extension (OLE) trial in adults with EDS (Epworth Sleepiness Scale score ≥10) associated with OSA (Malhotra A, et al. Sleep. 2020; 43(2):zsz220) was carried out. Participants with current/prior use of primary OSA therapy (positive airway pressure [PAP], oral pressure therapy, oral appliance, or upper airway stimulation) were eligible, regardless of the level of adherence to primary OSA therapy; participants who had not attempted to use primary OSA therapy were excluded. Adherence to primary OSA therapy was defined as PAP use ≥4 hours/night on ≥70% of nights/week, historical report (with investigator concurrence) of oral appliance use on ≥70% of nights, or effective surgical intervention. Nonadherence to primary OSA therapy was defined as device use at a level lower than specific above, no device use at all, or surgical intervention deemed no longer effective. Participants received placebo or solriamfetol 37.5 (12-week trial only), 75, 150, or 300 mg/day for 12 weeks (12-week trial) or ≤40 weeks (OLE trial). Vital signs, antihypertensive medication use, and adverse events (AEs) were monitored throughout the studies. Baseline demographics, CV comorbidities, and concomitant medications, the percentage of participants who initiated antihypertensive medication use during treatment, and the incidence of and discontinuations due to AEs of hypertension/increased BP were summarized for the safety population (participants who received ≥1 dose of study medication).

[2] = system: participants with narcolepsy or OSA; assay: 1-year OLE study: adverse events; type: in vivo, human
Description: A 1-year open-label extension (OLE) study was performed with 374 participants to examined whether clinically significant weight loss (≥5%) in this population had favorable effects on biomarkers of cardiovascular risk compared to no such weight loss. The study measured changes in weight and BP (parent study baseline to OLE week 40) and clinical laboratory assessments (OLE baseline to week 40) in participants with narcolepsy (n=124) or OSA (n=250) who received solriamfetol at doses of 75, 150, or 300 mg/d.
Of 374 participants, 96 (25.7%) had ≥5% weight loss; among those without ≥5% weight loss (n=278), 34 (9.1% of total population) had ≥5% weight gain. Demographics were similar in those with and without weight loss (see Table 1 (demographics and baseline characteristics) and Table 2 (additional demographics and baseline characteristics)). […] Participants with weight loss had mean±SD reductions in SBP (−2.6±11.4 mmHg) and DBP (−1.0±9.0 mmHg), whereas participants without weight loss had increases of +0.65±12.5 mmHg and +1.2±8.7 mmHg, respectively (see Table 3 (blood pressure at baseline and week 40), Table 4 (systolic blood pressure (SBP) maximum changes from baseline to week 40), and Table 5 (diastolic blood pressure (DBP) maximum changes from baseline to week 40)). Adverse events are shown in Table 11 (adverse events in ≥5% of Combined Solriamfetol Participants).

[3] = Weight loss <5% at Week 40, 75 mg/d
[4] = Weight loss <5% at Week 40, 150 mg/d
[5] = Weight loss <5% at Week 40, 300 mg/d
[6] = Weight loss <5% at Week 40, all doses
[7] = Weight loss ≥5% at Week 40, 75 mg/d
[8] = Weight loss ≥5% at Week 40, 150 mg/d
[9] = Weight loss ≥5% at Week 40, 300 mg/d
[10] = Weight loss ≥5% at Week 40, all doses

## NC(=O)OC[C@H](N)Cc1ccccc1 [Solriamfetol, (R)-2-amino-3-phenylpropyl carbamate]
[1]; OLE
  change in DBP from baseline to week 40: 0.29 mm Hg
  change in HR from baseline to week 40: −1.94 bpm
  change in SBP from baseline to week 40: −0.49 mm Hg
  total participants with AEs of hypertension/increased BP: 22 participants
[1]; OLE trial
  serious AE of cerebrovascular accident: 1
[1]; OLE, 75 mg
  Discontinuation due to AE of HTN/increased BP: 1 (0.2)^d n (%)
  Initiated anti-HTN: 3 (6.1) n (%)
[1]; OLE, 75 mg, % of participants that ever received the dose level (n = 417)
  AE of HTN/increased BP: 4 (1.0) n (%)
[1]; OLE, 150 mg
  Discontinuation due to AE of HTN/increased BP, (%): (0.2)^d %
  Initiated anti-HTN: 2 (1.4) n (%)
[1]; OLE, 150 mg, % of participants that ever received the dose level (n = 402)
  AE of HTN/increased BP, (%): (1.5) %
[1]; OLE, 300 mg
  Discontinuation due to AE of HTN/increased BP, (%): (0.3)^e %
  Initiated anti-HTN: 3 (1.3) n (%)
[1]; OLE, 300 mg, % of participants that ever received the dose level (n = 326)
  AE of HTN/increased BP, (%): (3.7) %
[2]; [3]
  AE of interest: Decreased appetite: 1(4.8) n(%)
  Common AEs: Anxiety: 0 n(%)
  Common AEs: Dizziness: 2(9.5) n(%)
  Common AEs: Dry mouth: 2(9.5) n(%)
  Common AEs: Feeling jittery: 2(9.5) n(%)
  Common AEs: Headache: 3(14.3) n(%)
  Common AEs: Influenza: 0 n(%)
  Common AEs: Insomnia: 4(19.0) n(%)
  Common AEs: Nasopharyngitis: 3(14.3) n(%)
  Common AEs: Nausea: 0 n(%)
  Common AEs: Sinusitis: 1(4.8) n(%)
  Common AEs: URTI (Upper Respiratory Tract Infection): 0 n(%)
[2]; [4]
  AE of interest: Decreased appetite: 5(4.8) n(%)
  Common AEs: Anxiety: 10(9.5) n(%)
  Common AEs: Dizziness: 2(1.9) n(%)
  Common AEs: Dry mouth: 6(5.7) n(%)
  Common AEs: Feeling jittery: 7(6.7) n(%)
  Common AEs: Headache: 9(8.6) n(%)
  Common AEs: Influenza: 3(2.9) n(%)
  Common AEs: Insomnia: 14(13.3) n(%)
  Common AEs: Nasopharyngitis: 14(13.3) n(%)
  Common AEs: Nausea: 12(11.4) n(%)
  Common AEs: Sinusitis: 2(1.9) n(%)
  Common AEs: URTI (Upper Respiratory Tract Infection): 6(5.7) n(%)
[2]; [5]
  AE of interest: Decreased appetite: 6(3.9) n(%)
  Common AEs: Anxiety: 2(1.3) n(%)
  Common AEs: Dizziness: 4(2.6) n(%)
  Common AEs: Dry mouth: 5(3.3) n(%)
  Common AEs: Feeling jittery: 7(4.6) n(%)
  Common AEs: Headache: 15(9.9) n(%)
  Common AEs: Influenza: 2(1.3) n(%)
  Common AEs: Insomnia: 3 (2.0) n(%)
  Common AEs: Nasopharyngitis: 15(9.9) n(%)
  Common AEs: Nausea: 8 (5.3) n(%)
  Common AEs: Sinusitis: 11(7.2) n(%)
  Common AEs: URTI (Upper Respiratory Tract Infection): 14(9.2) n(%)
[2]; [6]
  AE of interest: Decreased appetite: 12(4.3) n(%)
  Common AEs: Anxiety: 12(4.3) n(%)
  Common AEs: Dizziness: 8(2.9) n(%)
  Common AEs: Dry mouth: 13(4.7) n(%)
  Common AEs: Feeling jittery: 16(5.8) n(%)
  Common AEs: Headache: 27(9.7) n(%)
  Common AEs: Influenza: 5(1.8) n(%)
  Common AEs: Insomnia: 21(7.6) n(%)
  Common AEs: Nasopharyngitis: 32(11.5) n(%)
  Common AEs: Nausea: 20(7.2) n(%)
  Common AEs: Sinusitis: 14(5.0) n(%)
  Common AEs: URTI (Upper Respiratory Tract Infection): 20(7.2) n(%)
[2]; [7]
  AE of interest: Decreased appetite: 0 n(%)
  Common AEs: Anxiety: 0 n(%)
  Common AEs: Dizziness: 0 n(%)
  Common AEs: Dry mouth: 1(100) n(%)
  Common AEs: Feeling jittery: 0 n(%)
  Common AEs: Headache: 0 n(%)
  Common AEs: Influenza: 0 n(%)
  Common AEs: Insomnia: 0 n(%)
  Common AEs: Nasopharyngitis: 0 n(%)
  Common AEs: Nausea: 0 n(%)
  Common AEs: Sinusitis: 0 n(%)
  Common AEs: URTI (Upper Respiratory Tract Infection): 0 n(%)
[2]; [8]
  AE of interest: Decreased appetite: 0 n(%)
  Common AEs: Anxiety: 3(13.6) n(%)
  Common AEs: Dizziness: 2(9.1) n(%)
  Common AEs: Dry mouth: 1(4.5) n(%)
  Common AEs: Feeling jittery: 2(9.1) n(%)
  Common AEs: Headache: 5(22.7) n(%)
  Common AEs: Influenza: 1(4.5) n(%)
  Common AEs: Insomnia: 2(9.1) n(%)
  Common AEs: Nasopharyngitis: 0 n(%)
  Common AEs: Nausea: 4(18.2) n(%)
  Common AEs: Sinusitis: 3(13.6) n(%)
  Common AEs: URTI (Upper Respiratory Tract Infection): 1(4.5) n(%)
[2]; [9]
  AE of interest: Decreased appetite: 2(2.7) n(%)
  Common AEs: Anxiety: 3(4.1) n(%)
  Common AEs: Dizziness: 3(4.1) n(%)
  Common AEs: Dry mouth: 7(9.6) n(%)
  Common AEs: Feeling jittery: 1(1.4) n(%)
  Common AEs: Headache: 7(9.6) n(%)
  Common AEs: Influenza: 5(6.8) n(%)
  Common AEs: Insomnia: 5(6.8) n(%)
  Common AEs: Nasopharyngitis: 8(11.0) n(%)
  Common AEs: Nausea: 3(4.1) n(%)
  Common AEs: Sinusitis: 3(4.1) n(%)
  Common AEs: URTI (Upper Respiratory Tract Infection): 3(4.1) n(%)
[2]; [10]
  AE of interest: Decreased appetite: 2(2.1) n(%)
  Common AEs: Anxiety: 6(6.3) n(%)
  Common AEs: Dizziness: 5(5.2) n(%)
  Common AEs: Dry mouth: 9(9.4) n(%)
  Common AEs: Feeling jittery: 3(3.1) n(%)
  Common AEs: Headache: 12(12.5) n(%)
  Common AEs: Influenza: 6(6.3) n(%)
  Common AEs: Insomnia: 7(7.3) n(%)
  Common AEs: Nasopharyngitis: 8(8.3) n(%)
  Common AEs: Nausea: 7(7.3) n(%)
  Common AEs: Sinusitis: 6(6.3) n(%)
  Common AEs: URTI (Upper Respiratory Tract Infection): 4(4.2) n(%)
